Legend:
Experiment in all cases: competitive radioligand binding, recombinant cells
Assay type in all cases: cell-based
[1] = molecular target: 5-HT4 (Homo sapiens, UniProt Q13639)
[2] = molecular target: σ1 (Homo sapiens, UniProt Q99720)
[3] = molecular target: T1, α1B (Homo sapiens, UniProt P35368)
T1 sequence (P35368 1-520): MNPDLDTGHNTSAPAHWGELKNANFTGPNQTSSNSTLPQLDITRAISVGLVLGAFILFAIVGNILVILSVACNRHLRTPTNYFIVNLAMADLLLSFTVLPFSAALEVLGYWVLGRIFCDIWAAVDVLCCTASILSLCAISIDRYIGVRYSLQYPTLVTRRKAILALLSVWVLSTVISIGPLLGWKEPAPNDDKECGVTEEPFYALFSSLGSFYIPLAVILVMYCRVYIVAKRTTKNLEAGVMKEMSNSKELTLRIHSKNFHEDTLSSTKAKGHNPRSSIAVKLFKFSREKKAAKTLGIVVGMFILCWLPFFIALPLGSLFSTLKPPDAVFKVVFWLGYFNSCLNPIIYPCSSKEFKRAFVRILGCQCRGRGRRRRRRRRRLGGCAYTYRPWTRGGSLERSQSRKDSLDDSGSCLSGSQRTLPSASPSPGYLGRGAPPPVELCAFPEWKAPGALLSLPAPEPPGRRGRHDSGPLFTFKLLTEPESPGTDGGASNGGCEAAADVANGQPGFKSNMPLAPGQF

[4] = molecular target: T2, α1D (Homo sapiens, UniProt P25100)
T2 sequence (P25100 1-572): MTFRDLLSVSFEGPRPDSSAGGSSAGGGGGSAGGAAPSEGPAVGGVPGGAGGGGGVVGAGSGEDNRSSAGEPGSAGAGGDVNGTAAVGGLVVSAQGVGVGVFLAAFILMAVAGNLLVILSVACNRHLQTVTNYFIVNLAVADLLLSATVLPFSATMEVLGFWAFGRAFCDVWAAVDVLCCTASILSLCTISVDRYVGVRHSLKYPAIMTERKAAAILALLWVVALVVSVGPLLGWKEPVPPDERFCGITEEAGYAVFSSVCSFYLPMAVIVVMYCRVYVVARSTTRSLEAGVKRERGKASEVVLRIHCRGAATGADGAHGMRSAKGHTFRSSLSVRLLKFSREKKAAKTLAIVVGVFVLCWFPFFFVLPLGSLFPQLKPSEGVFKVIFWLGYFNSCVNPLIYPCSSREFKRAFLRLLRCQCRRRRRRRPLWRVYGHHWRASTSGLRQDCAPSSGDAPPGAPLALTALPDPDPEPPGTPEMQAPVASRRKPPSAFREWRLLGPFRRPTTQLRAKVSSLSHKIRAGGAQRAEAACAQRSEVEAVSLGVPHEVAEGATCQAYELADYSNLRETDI

5-HT4, sequence (Q13639 whole entry): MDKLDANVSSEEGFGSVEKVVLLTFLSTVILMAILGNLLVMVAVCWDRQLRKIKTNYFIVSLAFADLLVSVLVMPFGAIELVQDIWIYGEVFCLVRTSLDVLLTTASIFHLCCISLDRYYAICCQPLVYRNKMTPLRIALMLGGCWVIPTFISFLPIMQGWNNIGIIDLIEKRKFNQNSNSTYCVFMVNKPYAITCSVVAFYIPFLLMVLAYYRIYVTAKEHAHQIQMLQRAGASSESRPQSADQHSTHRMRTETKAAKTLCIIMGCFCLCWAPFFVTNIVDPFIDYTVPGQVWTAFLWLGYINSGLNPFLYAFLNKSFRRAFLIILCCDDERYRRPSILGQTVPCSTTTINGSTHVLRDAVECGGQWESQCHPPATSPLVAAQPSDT
σ1, sequence (Q99720 whole entry): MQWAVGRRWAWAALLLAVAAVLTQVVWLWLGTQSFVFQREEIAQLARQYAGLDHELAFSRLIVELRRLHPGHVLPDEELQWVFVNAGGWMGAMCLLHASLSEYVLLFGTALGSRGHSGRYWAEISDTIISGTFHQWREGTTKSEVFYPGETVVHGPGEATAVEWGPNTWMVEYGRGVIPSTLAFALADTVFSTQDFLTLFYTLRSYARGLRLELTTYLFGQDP

## O=c1n(CCCN2CCN(c3cccc(Cl)c3)CC2)nc2ccccn12 [trazodone]
[1]
  Ki: 10000 nM
[2]
  Ki: 3980 nM
[3]
  Ki: 15 nM
[4]
  Ki: 27 nM

Source: PMC9200067 (Clinical and Translational Science, 2022)
